Inconclusive results and toxic doses are left out. Rule as the data show it: active = T/C of 150% or more; inactive = T/C below 125%.
System: L1210 leukemia ip in BDF1 mice, survival T/C
Experiment: NCI In Vivo Anticancer Drug Screen. Data for tumor model L1210 Leukemia (intraperitoneal) in B6D2F1 (BDF1) mice
Details: endpoint: mean survival time, higher = longer survival
In short: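 Each compound was tested against a transplantable tumor grown in mice. The endpoint was survival, with treated animals benchmarked against vehicle controls as a simple ratio.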

[1] = dose: 100.0 mg/kg/injection, schedule: Q01DX001 (ip), vehicle: saline
[2] = dose: 200.0 mg/kg/injection, schedule: Q01DX001 (ip), vehicle: saline
[3] = dose: 400.0 mg/kg/injection, schedule: Q01DX001 (ip), vehicle: saline
[4] = dose: 12.5 mg/kg/injection, schedule: Q04DX003 (ip), vehicle: saline
[5] = dose: 25.0 mg/kg/injection, schedule: Q04DX003 (ip), vehicle: saline
[6] = dose: 100.0 mg/kg/injection, schedule: Q01DX009 (ip), vehicle: saline with Tween-80
[7] = dose: 100.0 mg/kg/injection, schedule: Q04DX003 (ip), vehicle: saline with Tween-80
[8] = dose: 200.0 mg/kg/injection, schedule: Q01DX009 (ip), vehicle: saline with Tween-80
[9] = dose: 200.0 mg/kg/injection, schedule: Q04DX003 (ip), vehicle: saline with Tween-80
[10] = dose: 400.0 mg/kg/injection, schedule: Q01DX009 (ip), vehicle: saline with Tween-80
[11] = dose: 400.0 mg/kg/injection, schedule: Q04DX003 (ip), vehicle: saline with Tween-80
[12] = dose: 100.0 mg/kg/injection, schedule: Q01DX009 (ip), vehicle: Klucel (hydroxypropylcellulose) (HPC)
[13] = dose: 100.0 mg/kg/injection, schedule: Q04DX002 (ip), vehicle: Klucel (hydroxypropylcellulose) (HPC)
[14] = dose: 200.0 mg/kg/injection, schedule: Q01DX009 (ip), vehicle: Klucel (hydroxypropylcellulose) (HPC)
[15] = dose: 200.0 mg/kg/injection, schedule: Q04DX002 (ip), vehicle: Klucel (hydroxypropylcellulose) (HPC)
[16] = dose: 400.0 mg/kg/injection, schedule: Q04DX002 (ip), vehicle: Klucel (hydroxypropylcellulose) (HPC)
[17] = dose: 100.0 mg/kg/injection, schedule: Q01DX001 (ip), vehicle: other
[18] = dose: 200.0 mg/kg/injection, schedule: Q01DX001 (ip), vehicle: other
[19] = dose: 400.0 mg/kg/injection, schedule: Q01DX001 (ip), vehicle: other
[20] = dose: 100.0 mg/kg/injection, schedule: Q01DX009 (ip), vehicle: other
[21] = dose: 200.0 mg/kg/injection, schedule: Q01DX009 (ip), vehicle: other
[22] = dose: 400.0 mg/kg/injection, schedule: Q01DX009 (ip), vehicle: other

Measured: T/C

CCOC(=O)C(CC1CC(=O)Nc2ccccc21)C(=O)OCC (stereo not given)
inactive: [1] 95 % of control | [2] 97 % of control | [3] 101 % of control

CC(=O)[C@H]1CC[C@H]2[C@@H]3CCC4=CC(=O)[C@H](C)C[C@]4(C)[C@H]3C(=O)C[C@]12C
inactive: dose: 200.0 mg/kg/injection, schedule: Q01DX001 (sc), vehicle: steriod suspending solution 98 % of control | dose: 200.0 mg/kg/injection, schedule: Q01DX009 (sc), vehicle: steriod suspending solution 100 % of control | dose: 400.0 mg/kg/injection, schedule: Q01DX001 (sc), vehicle: steriod suspending solution 104 % of control | dose: 400.0 mg/kg/injection, schedule: Q01DX009 (sc), vehicle: steriod suspending solution 100 % of control | dose: 600.0 mg/kg/injection, schedule: Q01DX001 (sc), vehicle: steriod suspending solution 96 % of control | dose: 600.0 mg/kg/injection, schedule: Q01DX009 (sc), vehicle: steriod suspending solution 92 % of control | dose: 800.0 mg/kg/injection, schedule: Q01DX001 (sc), vehicle: steriod suspending solution 96 % of control | dose: 800.0 mg/kg/injection, schedule: Q01DX009 (sc), vehicle: steriod suspending solution 92 % of control

O=[N+]([O-])c1ccccn1
inactive: dose: 6.25 mg/kg/injection, schedule: Q01DX009 (ip), vehicle: saline 102 % of control | dose: 6.25 mg/kg/injection, schedule: Q04DX003 (ip), vehicle: saline 95 % of control | dose: 12.5 mg/kg/injection, schedule: Q01DX009 (ip), vehicle: saline 102 % of control | [4] 98 % of control | [5] 93 % of control | dose: 75.0 mg/kg/injection, schedule: Q01DX001 (ip), vehicle: other 98 % of control

CC(C)CCS(=O)CCC(C)C
inactive: [6] 96 % of control | [7] 105 % of control | [8] 96 % of control | [9] 120 % of control | [10] 100 % of control | [11] 97 % of control

CN(C1=NS(=O)(=O)N=C(N(C)c2ccccc2)O1)c1ccccc1
inactive: dose: 100.0 mg/kg/injection, schedule: Q04DX003 (ip), vehicle: Klucel (hydroxypropylcellulose) (HPC) 102 % of control | dose: 200.0 mg/kg/injection, schedule: Q04DX003 (ip), vehicle: Klucel (hydroxypropylcellulose) (HPC) 102 % of control | dose: 400.0 mg/kg/injection, schedule: Q04DX003 (ip), vehicle: Klucel (hydroxypropylcellulose) (HPC) 98 % of control

CCCCCC/C=C\[N+](=O)[O-]
inactive: dose: 50.0 mg/kg/injection, schedule: Q01DX001 (ip), vehicle: saline with Tween-80 109 % of control

CC12OC1(C)C1(CO1)C1(C)OC1(C)C2=O (stereo not given)
inactive: dose: 100.0 mg/kg/injection, schedule: Q01DX001 (ip), vehicle: Klucel (hydroxypropylcellulose) (HPC) 94 % of control | dose: 200.0 mg/kg/injection, schedule: Q01DX001 (ip), vehicle: Klucel (hydroxypropylcellulose) (HPC) 97 % of control | dose: 400.0 mg/kg/injection, schedule: Q01DX001 (ip), vehicle: Klucel (hydroxypropylcellulose) (HPC) 87 % of control

CCC(C)C(N)C(=O)OCc1ccccc1 (stereo not given)
inactive: dose: 50.0 mg/kg/injection, schedule: Q01DX009 (ip), vehicle: Klucel (hydroxypropylcellulose) (HPC) 88 % of control | [12] 90 % of control | [13] 95 % of control | [14] 92 % of control | [15] 92 % of control | [16] 89 % of control

CC(=O)NC(CC(C)C)C(=O)O (stereo not given)
inactive: dose: 25.0 mg/kg/injection, schedule: Q04DX002 (ip), vehicle: saline 96 % of control | dose: 50.0 mg/kg/injection, schedule: Q04DX002 (ip), vehicle: saline 101 % of control | dose: 100.0 mg/kg/injection, schedule: Q04DX002 (ip), vehicle: saline 101 % of control | dose: 200.0 mg/kg/injection, schedule: Q04DX002 (ip), vehicle: saline 90 % of control | dose: 400.0 mg/kg/injection, schedule: Q04DX002 (ip), vehicle: saline 108 % of control

C/C(=C\c1ccc(C)cc1)[N+](=O)[O-]
inactive: dose: 50.0 mg/kg/injection, schedule: Q01DX001 (ip), vehicle: other 108 % of control | [17] 100 % of control | [18] 92 % of control | [19] 103 % of control

O=S1(=O)CCCC1C(O)(c1ccccc1)c1ccccc1 (stereo not given)
inactive: [7] 97 % of control | [9] 92 % of control | [11] 94 % of control

Sc1ccccc1
inactive: [7] 92 % of control | [9] 99 % of control | [11] 94 % of control

Cc1cc(/C=N/NC(=O)CCCC(=O)N/N=C/c2cc(C)n(-c3ccccc3)c2C)c(C)n1-c1ccccc1
inactive: dose: 50.0 mg/kg/injection, schedule: Q01DX001 (ip), vehicle: saline 98 % of control | [1] 93 % of control | [2] 95 % of control | [3] 89 % of control

COC(=O)C1CCC2c3ccccc3C(C1)c1ccccc12 (stereo not given)
inactive: [6] 97 % of control | [7] 101 % of control | [8] 95 % of control | [9] 95 % of control | [10] 94 % of control | [11] 93 % of control

CCCCOC(=O)c1ccc(NC(=O)Nc2ccc([N+](=O)[O-])cc2OC)cc1
inactive: [20] 98 % of control | [21] 104 % of control | [22] 87 % of control

Cc1ccc(C)c(NC(=O)Nc2cccc(O)c2)c1
inactive: [12] 102 % of control | [13] 109 % of control | [14] 103 % of control | [15] 102 % of control | dose: 400.0 mg/kg/injection, schedule: Q01DX009 (ip), vehicle: Klucel (hydroxypropylcellulose) (HPC) 94 % of control | [16] 109 % of control

O=C(O)c1ccc([N+](=O)[O-])cc1OCc1ccccc1
inactive: [17] 103 % of control | [18] 95 % of control | [19] 97 % of control

CN(C)N=C1CCC(=NN(C)C)CC1
inactive: [4] 100 % of control | [5] 100 % of control | dose: 50.0 mg/kg/injection, schedule: Q04DX003 (ip), vehicle: saline 94 % of control | dose: 100.0 mg/kg/injection, schedule: Q04DX003 (ip), vehicle: saline 100 % of control | dose: 200.0 mg/kg/injection, schedule: Q04DX003 (ip), vehicle: saline 99 % of control

CN(Cc1ccccc1)C(=O)c1cccc(C(=O)N(C)Cc2ccccc2)c1
inactive: [20] 97 % of control | [21] 97 % of control | [22] 94 % of control

O=C(COc1cccc(Cl)c1)Nc1cccc(NC(=O)c2cccc(S(=O)(=O)F)c2)c1
inactive: dose: 100.0 mg/kg/injection, schedule: Q01DX001 (ip), vehicle: carboxymethylcellulose (CMC) 88 % of control | dose: 200.0 mg/kg/injection, schedule: Q01DX001 (ip), vehicle: carboxymethylcellulose (CMC) 88 % of control | dose: 400.0 mg/kg/injection, schedule: Q01DX001 (ip), vehicle: carboxymethylcellulose (CMC) 97 % of control

O=C(CCc1ccc(O)cc1)N/N=C/c1cc(Br)ccc1O
inactive: [6] 97 % of control | [7] 95 % of control | [8] 92 % of control | [9] 96 % of control | [10] 92 % of control | [11] 90 % of control
